# Patent US10934529B2, “Three dimensional hydrogels for culturing organoids” (Ecole Polytechnique Fèdèrale de Lausanne, priority 2015, dated 2021)
# Entries after “also recorded” stand apart in the source; their conditions may differ.
# What was measured:
# Assay type in all cases: cell-based, mouse
# ISC colonies = experiment: ISC colony differentiation and intestinal organoid formation; settings: for ISC colony differentiation and organoid formation in soft PEG-RGD gels supplied with an ECM component: colonies grown in 1 kPa PEG-RGD, transferred into soft F-PEG-RGD, differentiation conditions; for Organoid formation from ISCs grown in soft laminin-containing gels: after switching to organoid formation conditions
# Experimental: To induce stem cell differentiation and organoid formation, the medium was removed, the gels were incubated in PBS (1 hr, […]) to remove residual CHIR99021 and valproic acid, and fresh medium containing EGF, Noggin and Respondin was added. In general, growth factors were replenished every two days, with full medium change taking place every four days.
# Intestinal organoids embedded in Matrigel or PEG were fixed with 4% paraformaldehyde (PFA) in PBS (30 min, RT). The fixation process typically led to complete degradation of the Matrigel. […] Following resuspension in water, the organoids were spread on glass slides and allowed to attach by drying. Attached organoids were rehydrated by adding PBS. Following fixation, organoids embedded in PEG or spread on glass were permeabilized with 0.2% Triton X-100 in PBS (1 h, RT) and blocked (10% goat serum in PBS containing 0.01% Triton X-100) for at least 2 h. Samples were subsequently incubated with blocking buffer-dissolved phalloidin-Alexa 546 (Invitrogen) and primary antibodies against lysozyme (1:50; Thermo Scientific) or mucin-2 (1:25; Santa Cruz) (overnight, 4° C.). After washing with PBS for 3 h (during which PBS was replaced every hour), samples were incubated with secondary antibody (Alexa 647) organoids were imaged in epifluorescence (Zeiss Axio Observer Z1) or confocal (Zeiss LSM 710) mode.
# [1] = test system: intestinal stem cells (ISCs); experiment: ISC colony formation efficiency / ISC expansion in hydrogels; settings: for ISC colony formation, ECM component in combination with RGD / ISC colony formation / self-renewal, ECM component alone: component in soft (300 Pa) or stiff (1300 Pa) PEG matrices; for ISC colony formation / self-renewal, ECM component alone: without RGD; for Expansion of Lgr5+ cells: supplement to standard intestinal organoid growth medium, PEG-RGD culture
# Experimental: Freshly isolated crypts or single cells from dissociated colonies were added to the Matrigel or hydrogels precursor solution and cast in 20-μL droplets at the bottom of wells in 24-well plate. […] For single cell culture, thiazovivin (2.5 μM; Stemgent) and Jagged-1 peptide ([…]; Anaspec) was included in the medium during the first two days. Broad spectrum protease inhibitor, GM6001, was added to the medium while embedding the cells in PEG hydrogels. Every two days the growth factors were replenished and the full medium was changed.
# (§1) To quantify the colony formation efficiency of single embedded ISCs, phase contrast z-stacks spanning the entire thickness of the cell-laden Matrigel or PEG gels were collected (Zeiss Axio Observer Z1) at 5 different locations within the gels. The Cell Counter plugin in ImageJ (NIH) was used to quantify the fraction of cells which had formed colonies at day 4 after seeding. To assess the viability of intestinal tissue fragments embedded in PEG, phase contrast images of the entire gel were collected. The fraction of viable tissues was estimated based upon the epithelial morphology: tissues that featured an epithelial monolayer surrounding a central lumen after 24 h of embedding were deemed viable.
# [2] = test system: freshly-isolated intestinal crypts; experiment: Survival and morphogenesis of freshly isolated intestinal crypts embedded in 3D matrices; settings: component presented alongside RGD in PEG-RGD hydrogel
# Excerpt: Matrigel is currently used to grow epithelial organoids. To address the question of whether Matrigel serves as merely a passive 3D scaffold, providing physical support, or actively influences organoid formation by presenting essential cues, freshly-isolated intestinal crypts were embedded into enzymatically crosslinked PEG hydrogels, which are soft and hydrated and thus mimic the basic physical properties of Matrigel without providing any biochemical signals.
# Intestinal crypt isolation: Mouse intestine crypts were isolated following procedures known in the art. Briefly, the proximal part of the intestine was harvested, opened longitudinally and washed with ice-cold PBS. The luminal side of the intestine was scraped using a glass slide to remove luminal content and villous structures. After washing with ice-cold PBS again, the intestine was cut into 2-4 mm pieces with scissors. The pieces were transferred to a 50 ml Falcon tube and further washed with cold PBS (5-10 times) with gentle vortexing. […]
# To quantify the colony formation efficiency of single embedded ISCs, phase contrast z-stacks spanning the entire thickness of the cell-laden Matrigel or PEG gels were collected (Zeiss Axio Observer Z1) at 5 different locations within the gels. The Cell Counter plugin in ImageJ (NIH) was used to quantify the fraction of cells which had formed colonies at day 4 after seeding. […]
# intestinal organoids = experiment: Viability, growth and morphogenesis of intestinal organoids / tissue fragments in hydrogels
# Excerpt: To identify a short sequence that supports intestinal cell survival, a library of soft (G′=200 Pa) hydrogels was created, in which specific binding sequences from the laminin al subunit (Table 1) were tethered to the PEG backbone.
# as §1
# Lgr5-EGFP = Lgr5-EGFP reporter expression in colonies and organoids; settings: cultured in the presence of collagen-I
# Excerpt: Lgr5-EGFP was expressed in the expected pattern, localized to the crypt-like buds of the organoids (FIG. 3B). […] Stem cell differentiation into functional cell types was confirmed by immunofluorescence analysis. Staining for lysozyme verified the presence of Paneth cells in the expected locations, interspersed with Lgr5+ stem cells in the characteristic checkerboard pattern (FIG. 3F). The organoids therefore retained the normal characteristics of epithelial cell organoids during culture in the hydrogels.
# Intestinal crypts were extracted from 5-10 week old heterozygous Lgr5-EGFP-IRES-CreERT2 mice (Jackson Laboratory), following animal experimentation protocols prescribed by EPFL and FELASA.
compound,measurement,setting,value
Perlecan: ECM component incorporated in PEG hydrogels,ISC colony differentiation and organoid formation in soft PEG-RGD gels supplied with an ECM component,ISC colonies,failed to support ISC colony differentiation and organoid formation
same,"ISC colony formation, ECM component in combination with RGD",[1],starkly increased colony formation efficiency
same,"ISC colony formation / self-renewal, ECM component alone",[1],did not alter ISC self-renewal
"Cc1c[nH]c(-c2cnc(NCCNc3ccc(C#N)cn3)nc2-c2ccc(Cl)cc2Cl)n1 [CHIR99021, reference compound]",Expansion of Lgr5+ cells,[1],increased
"Laminin-111: extracellular matrix glycoprotein, heterotrimer of α, β and γ chain",Organoid formation from ISCs grown in soft laminin-containing gels,ISC colonies; listed as laminin,give rise to organoids
same,Organoid formation from ISCs grown in soft laminin-containing gels,ISC colonies; listed as laminin-111,a small portion of the ISC colonies gave rise to intestinal organoids
same,ISC colony differentiation and organoid formation in soft PEG-RGD gels supplied with an ECM component,ISC colonies,pronounced morphogenesis and organoid formation; also recorded: required for organoid formation
same,"ISC colony formation, ECM component in combination with RGD",[1],increased colony formation efficiency
same,"ISC colony formation / self-renewal, ECM component alone",[1],effectively supported colony formation in soft matrices; also recorded: supports ISC colony formation within soft matrices
same,Stiffness at which ISC colony formation efficiency peaks,[1]; laminin-containing gels,700 Pa
same,ISC colony formation,[1]; soft hydrogels containing both RGD and laminin-111,30-50%
same,Efficiency in inducing ISC colony formation compared with RGD,"[1]; soft, 300 Pa hydrogel",significantly more efficient
Hyaluronic acid [reference compound],ISC colony differentiation and organoid formation in soft PEG-RGD gels supplied with an ECM component,ISC colonies,failed to support ISC colony differentiation and organoid formation
same,Crypt viability,[2],synergistic increase in crypt viability
same,"ISC colony formation, ECM component in combination with RGD",[1],did not appear to influence
"RKRLQVQLSIRT [AG73, synthetic peptide derived from the globular domain of the laminin al chain]",ISC colony differentiation and organoid formation in soft PEG-RGD gels supplied with an ECM component,ISC colonies,showed some early signs of differentiation and morphogenesis; also recorded: failed to support ISC colony differentiation and organoid formation
same,Crypt viability,[2],synergistic increase in crypt viability
same,Organoid viability,intestinal organoids; soft (G'=200 Pa) PEG hydrogels with tethered laminin a1 subunit binding sequences,significantly enhanced organoid viability
same,Effect of amount of tethered AG73 on organoid viability and growth,intestinal organoids; varying amount of AG73 tethered to PEG gel backbone,dose-dependent effect; also recorded: concentration-dependent
"CNC(=O)[C@H](Cc1c[nH]c2ccccc12)NC(=O)[C@@H](CC(=O)NO)CC(C)C [GM6001, reference compound]","Colony formation efficiency on blocking MMP activity, high matrix stiffness","[1]; printed: within non-degradable gels, high stiffness",reduced it to levels observed in non-degradable gels
same,"Colony formation efficiency on blocking MMP activity, low matrix stiffness","[1]; printed: within non-degradable gels, low stiffness",did not alter colony formation efficiency
"Arginine-Glycine-Aspartic Acid [RGD, reference compound]",Shear modulus at which ISC expansion / colony formation efficiency is optimal,[1]; RGD-containing gels of varying stiffness,1.3 kPa
same,RGD concentration at which ISC colony formation efficiency reached a plateau,"[1]; TG-PEG-RGD, varying RGD",approximately 500 μM
Fibronectin,ISC colony differentiation and organoid formation in soft PEG-RGD gels supplied with an ECM component,ISC colonies,failed to support ISC colony differentiation and organoid formation
same,"ISC colony formation, ECM component in combination with RGD",[1],no added effect
same,"ISC colony formation / self-renewal, ECM component alone",[1],appreciable colony formation only in stiff matrices
laminin-511: ECM component incorporated in PEG hydrogels,"ISC colony formation, ECM component in combination with RGD",[1],no effect
same,"ISC colony formation / self-renewal, ECM component alone",[1],no effect
Collagen-I: ECM component incorporated in PEG hydrogels,Lgr5-EGFP in viable cells and colonies,Lgr5-EGFP,largely devoid of Lgr5-EGFP
same,"ISC colony formation, ECM component in combination with RGD",[1],did not have a striking effect
same,ISC morphology,[1]; soft hydrogels with collagen-I and RGD,adopted a spindle-like morphology
"Cc1ccc2c(c1)C(=O)C1(O)CCN(c3ccccc3)C1=N2 (stereo not drawn) [blebbistatin, reference compound]",Effect of blocking myosin-mediated contractility on colony formation efficiency,[1]; PEG-RGD matrices of varying stiffness,abolished the stiffness-induced increase in colony formation efficiency
"CCCC(CCC)C(=O)O [valproic acid, reference compound]",Expansion of Lgr5+ cells,[1],increased
